In ChEMBL document CHEMBL1201862, “PubChem BioAssay data set” (2004):
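Each compound was tested at five concentrations against cells in 96-well plates for 48 hours. GI50 marks 50% less growth.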 Activity calls are given as the source filed them. Cut-off read from the data, not from the text of the source: active = GI50 up to about 1.1 µM and inactive = higher.

Key:
Test in all cases: NCI tumour cell line growth inhibition, 48 h
[1] = system: 786-0
[2] = system: ACHN
[3] = system: CAKI-1
[4] = system: HCC 2998
[5] = system: HCT-116
[6] = system: HCT-15
[7] = system: HOP-62
[8] = system: K562
[9] = system: MCF7
[10] = system: MDA-MB-435
[11] = system: MOLT-4
[12] = system: NCI-H226
[13] = system: NCI-H522
[14] = system: OVCAR-8
[15] = system: SF-295
[16] = system: SR
[17] = system: TK-10
[18] = system: UACC-257
[19] = system: A549
[20] = system: A498

SMILES	GI50 [1]	GI50 [2]	GI50 [3]	GI50 [4]	GI50 [5]	GI50 [6]	GI50 [7]	GI50 [8]	GI50 [9]	GI50 [10]	GI50 [11]	GI50 [12]	GI50 [13]	GI50 [14]	GI50 [15]	GI50 [16]	GI50 [17]	GI50 [18]	GI50 [19]	GI50 [20]
CCOC(=O)c1ccc(/N=N/N(C)C(=O)C(C)N)cc1 (stereo not given)	> 100 µM (inactive)	49.5 µM (inactive)	92.5 µM (inactive)	> 100 µM (inactive)	> 100 µM (inactive)	> 100 µM	> 100 µM (inactive)	> 100 µM (inactive)	> 100 µM (inactive)	56.8 µM (inactive)	43.7 µM (inactive)	> 100 µM (inactive)	86.5 µM (inactive)	> 100 µM (inactive)	> 100 µM (inactive)	36.1 µM (inactive)	> 100 µM (inactive)	> 100 µM (inactive)		
COC(=O)[C@@H]1C[C@H]2OC(=O)CC[C@]2(C)O[C@H]1[C@H]1O[C@@](C)(O)CCC[C@H]1C	> 50 µM (inactive)	> 50 µM (inactive)	> 50 µM (inactive)	> 50 µM (inactive)	> 50 µM (inactive)	> 50 µM	> 50 µM (inactive)	> 50 µM (inactive)	> 50 µM (inactive)	> 50 µM (inactive)	> 50 µM (inactive)	> 50 µM (inactive)	28.6 µM (inactive)	> 50 µM (inactive)	> 50 µM (inactive)	> 50 µM (inactive)	> 50 µM (inactive)	> 50 µM (inactive)	> 50 µM (inactive)	
Cc1ccccc1NC(=N)Nc1ccccc1C	> 100 µM (inactive)	> 100 µM (inactive)	> 100 µM (inactive)	21.9 µM (inactive)	> 100 µM (inactive)	> 100 µM	> 100 µM (inactive)	> 100 µM (inactive)	> 100 µM (inactive)	> 100 µM (inactive)	> 100 µM (inactive)	> 100 µM (inactive)	> 100 µM (inactive)	> 100 µM (inactive)	> 100 µM (inactive)		> 100 µM (inactive)	> 100 µM (inactive)	> 100 µM (inactive)	> 100 µM (inactive)
O=[N+]([O-])c1ccc(Cl)cc1N/N=C/c1ccnc2ccccc12	> 100 µM (inactive)	> 100 µM (inactive)	> 100 µM (inactive)	> 100 µM (inactive)	42.9 µM (inactive)	> 100 µM	> 100 µM (inactive)	> 100 µM (inactive)	> 100 µM (inactive)	97.3 µM (inactive)	> 100 µM (inactive)	> 100 µM (inactive)	> 100 µM (inactive)	46.5 µM (inactive)	> 100 µM (inactive)	> 100 µM (inactive)	> 100 µM (inactive)	> 100 µM (inactive)	> 100 µM (inactive)	
C1CCNCC1.O=C1NC(=S)N/C1=C/c1ccccc1O	> 100 µM (inactive)	> 100 µM (inactive)	> 100 µM (inactive)	23.5 µM (inactive)	> 100 µM (inactive)	> 100 µM	> 100 µM (inactive)		> 100 µM (inactive)	> 100 µM (inactive)	73.1 µM (inactive)	> 100 µM (inactive)	92 µM (inactive)	> 100 µM (inactive)	> 100 µM (inactive)	> 100 µM (inactive)	> 100 µM (inactive)	> 100 µM (inactive)	> 100 µM (inactive)	
CCOC(=O)C1=CC(C)(C(=O)OCC)Nc2c(nc(SC)[nH]c2=O)N1 (stereo not given)	> 10 µM (inactive)	> 10 µM (inactive)	> 10 µM (inactive)	> 10 µM (inactive)	> 10 µM (inactive)	> 10 µM	> 10 µM (inactive)	> 10 µM (inactive)	> 10 µM (inactive)	> 10 µM (inactive)	> 10 µM (inactive)	> 10 µM (inactive)	> 10 µM (inactive)	> 10 µM (inactive)	> 10 µM (inactive)		> 10 µM (inactive)	> 10 µM (inactive)	> 10 µM (inactive)	> 10 µM (inactive)
CCNC1=C(NC(=O)CCl)C(=O)c2ccccc2C1=O	34.4 µM (inactive)	18 µM (inactive)		> 10 µM (inactive)	18.4 µM (inactive)	18.5 µM	16.5 µM (inactive)	25.5 µM (inactive)	22.4 µM (inactive)	19.1 µM (inactive)	18.2 µM (inactive)	22 µM (inactive)	15.1 µM (inactive)	20.1 µM (inactive)	19.4 µM (inactive)	32.8 µM (inactive)	17.7 µM (inactive)	> 10 µM (inactive)	33.7 µM (inactive)	
COc1cc(O)c2c(=O)c(OC)c(-c3ccc4c(c3)OCO4)oc2c1OC	38.9 µM (inactive)	> 50 µM (inactive)	> 50 µM (inactive)	> 50 µM (inactive)	49.7 µM (inactive)	> 50 µM	21.8 µM (inactive)	> 50 µM (inactive)	> 50 µM (inactive)	> 50 µM (inactive)	> 50 µM (inactive)	> 50 µM (inactive)	> 50 µM (inactive)	19.1 µM (inactive)	29 µM (inactive)		> 50 µM (inactive)	> 50 µM (inactive)	> 50 µM (inactive)	> 50 µM (inactive)
CN1CCN(C(=S)N(C)C(=O)c2ccc(Cl)cc2)CC1	> 100 µM (inactive)	0.132 µM (active)		> 100 µM (inactive)		> 100 µM		> 100 µM (inactive)	> 100 µM (inactive)	> 100 µM (inactive)	> 100 µM (inactive)	> 100 µM (inactive)	> 100 µM (inactive)	> 100 µM (inactive)	> 100 µM (inactive)	> 10 µM (inactive)	> 100 µM (inactive)	> 100 µM (inactive)	> 100 µM (inactive)	
CC1(c2ccccc2)CCN(C2CC2)CO1 (stereo not given)	11.4 µM (inactive)	17.9 µM (inactive)	18.8 µM (inactive)	17.1 µM (inactive)	19.9 µM (inactive)	16.5 µM	> 100 µM (inactive)	15.3 µM (inactive)	16.2 µM (inactive)	49.9 µM (inactive)	18.3 µM (inactive)	> 100 µM (inactive)		68.1 µM (inactive)	> 100 µM (inactive)	25.5 µM (inactive)	13.8 µM (inactive)	22.4 µM (inactive)	> 100 µM (inactive)	
C=C1C(C)C2C(Cc3ccccc3)NC(=O)C23C(OC(C)=O)C=CC(C)(O)C(=O)C(C)C/C=C/C3C1O (stereo not given)	0.311 µM (active)	0.889 µM (active)	0.129 µM (active)	21.7 µM (inactive)	3.54 µM (inactive)		0.0678 µM (active)	33.1 µM (inactive)	6.76 µM (inactive)	51.1 µM (inactive)		3.85 µM (inactive)	2.43 µM (inactive)	79.8 µM (inactive)	0.366 µM (active)	3.3 µM (inactive)	0.505 µM (active)	6.59 µM (inactive)	0.764 µM (active)	
